Experimental data reported in patent US20220411448A1, “CHROMENE-4-ONE DERIVATIVES AS BRAIN-DERIVED NEUROTROPHIC FACTOR (BDNF) MIMETICS” (FLORATEK PHARMA AG, priority 2019, published 2022).

Tests used:
[1] = Metabolic stability in human intestine microsomes; assay type: in vitro ADME; conditions: both sexes, pooled intestine microsomes, pH 7.4, intestinal microsomes, 0.5 mg/ml protein, read-out: T1/2 IM human
Procedure: (§1) Sample type: pooled liver or intestine microsomes; Species: CD1-mouse (male), human (mixed gender) Time points: 0, 10, 20, 40, 60 min cofactors, and negative control;
(§2) Protein content: 0.5 mg/ml: Replicates: 2 with cofactors, 1 without cofactors; Cofactors: NADPH (1 mM)+UDPGA (1 mM)+15 μg/ml alamethicin Buffer: 0.1 M phosphate buffer pH 7.4, 2 mM MgCl2; Spiking solvent: 50% DMSO ( 1/100 to incubation); Quenching solvent: 2-fold volume of 75% ACN, Control: midazolam disappearance rate
(§3) The study compounds were incubated with liver or intestine microsomes as specified above. The collected samples were stored at −20 C until thawed at room temperature, centrifuged and analyzed as presented below.
(§4) The samples were analysed by UPLC/HR-MS (with data dependent MS/MS mode) to monitor substrate depletion (and later optionally metabolite formation). The analytical method was optimised by using the parent compound for optimum chromatographic properties (peak shape and retention) and mass spectrometric ionisation. Disappearance rate of the study compound was estimated based on relative LC/MS peak areas (o min marked as 100%), and was used to calculate in vitro half-life and clearance (and in vivo extrapolation of hepatic clearance).

[2] = tested on: human hepatocytes from pooled donor lot; experiment: Hepatic toxicity: cytotoxicity by LDH leakage; assay type: cell-based; conditions: 1 to 100 μM, 24 h exposure
Procedure: (§5) Cryopreserved human hepatocytes from pooled donor lot (Bioreclamation IVT) were seeded on collagen I coated 96-well plates (Corning Biocoat) at 0.55×10^5 cells per well in 120 μl InVitroGRO™ CP medium (BioIVT), including additives Torpedo Antibiotic mix (BioIVT). After cell attachment (4-6 hours post seeding) cell culture medium was replaced with fresh medium and incubated for 72 hours at 37° C. under 5% CO2. Thereafter, hepatocytes were exposed to test or control compounds in 100 μl of InVitroGRO™ HI medium, including additives Torpedo Antibiotic mix at concentrations presented below. Cytotoxicity and cell viability were evaluated based on LDH release in medium and ATP content in the cells after 24 hours exposure phase.
(§6) Cytotoxicity potency of test compounds SND118, SND121, SND122 and SND123 was assayed in human hepatocytes from pooled donor lot at three concentrations; 1, 10 and 100 μM. Cytotoxicity was assayed from medium samples after 24 h exposure period with test compounds by measuring membrane integrity (LDH leakage), coupled to fluorescent signal. In parallel, cell viability was assayed by the means of ATP content, indicating the metabolically competent cell activity. LDH and ATP assay kits were sourced from Promega. ATP content was measured based on luciferase catalysed reaction generating stable bioluminescent signal. […]

NO = experiment: LPS stimulation of BV-2 microglia: NO (Griess reagent); assay type: cell-based, murine; conditions: between 0.3 and 3 μM, BV2, LPS 500 ng/ml, 24 h
Procedure: The murine microglial cell line BV-2 was grown in DMEM medium supplemented with 10% FCS, 1% penicillin/streptomycin and 2 mM L-glutamine (culture medium). For LPS stimulation assay, 10000 BV-2 cells per well (uncoated 96 well plates) were plated and after 24 hours, medium was changed to serum-free treatment medium (DMEM, 2 mM L-glutamine) and cells were maintained in treatment medium for the remaining culture period. 1 h after changing cells to treatment medium, the test items were added 1 hour before LPS stimulation (Sigma-Aldrich; L6529; 1 mg/ml stock in ddH2O, final concentration in well: 500 ng/ml (dilutions in medium)). Cells treated with vehicle, cells treated with LPS alone, as well as cells treated with LPS plus reference dexamethasone at 10 μM item served as controls.
Following 24 h of stimulation, cell supernatants were collected for the NO, and cytokine measurements. Levels of 2 cytokines (TNF-α, IL-6) were measured by an immunosorbent assay (U-PLEX Custom […] Cytokine, Mesoscale Discovery) according to the instructions of the manufacturer and evaluated in comparison to calibration curves provided in the kit. […] Absorbance was measured at 570 nm. Nitrosative stress was evaluated in the study samples in comparison to a NaNO2 standard curve. […]

[3] = Metabolic stability in mouse plasma; assay type: in vitro ADME, CD1-mouse; conditions: 1 μM
Procedure: The compounds were incubated with plasma, and the collected samples were analyzed by UPLC/HR-MS to measure stability of the compounds.
Sample type: plasma; Species: CD1-mouse (male), human (mixed gender); Time points: 0, 20, 40, 60, 120 min;
Spiking solvent: 50% DMSO ( 1/100 to incubation); Quenching solvent: 2-fold volume of 100% ACN; Control: propanthelin bromide (human, mouse)
The study compounds were incubated with plasma as specified above. The collected samples were stored at −20 C until thawed at room temperature, centrifuged and analyzed using UPLC/PDA with high resolution mass spectrometry (QE-Orbitrap-MS on DDI mode) to monitor substrate depletion and metabolite formation. The analytical method was optimised by using the parent compounds for optimum chromatographic properties (peak shape and retention) and mass spectrometric ionisation. Disappearance was based on relative LC/MS peak areas (0 min=100%) and will be used to calculate half-lives.

[4] = tested on: human hepatocytes from pooled donor lot; experiment: Hepatic toxicity: cell viability by ATP content; assay type: cell-based; conditions: 1 to 100 μM, 24 h exposure
Procedure: as §5, §6

[5] = Metabolic stability in mouse intestine microsomes; assay type: in vitro ADME; conditions: male, CD1, mouse, pooled intestine microsomes, pH 7.4, intestinal microsomes, 0.5 mg/ml protein, read-out: T1/2 IM mouse
Procedure: as §1, §2, §3, §4

O=c1cc(-c2ccc(CCCC[P+](c3ccccc3)(c3ccccc3)c3ccccc3)cc2)oc2c(O)c(O)ccc12 [SND118, 4-[4-(7,8-dihydroxy-4-oxo-chromen-2-yl)phenyl]butyltriphenylphosphonium bromide]
half-life at 1 μM [1]: 30.8 min | Cytotoxicity (LDH leakage) [2]: 7-10% | level of NO in response to LPS stimulation (NO): significantly decreased | T1/2 plasma Mouse [3]: 789 min | ATP content (cell viability) [4]: 72-103% | half-life at 1 μM [5]: 27.6 min
